Measured values reported in patent publication US12110276B2 (Genentech, Inc., priority 2021, dated 2024).

Experiments:
TEAD1 = TEAD1 (Homo sapiens (Human), UniProt P28347); test: TR-FRET lipid pocket probe competition assay (Lipid HTRF), TEAD1; assay type: binding; conditions: 4 hours pre-incubation; read-out: Lipid HTRF TEAD1 IC50;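 note: His-tagged TEAD1 with biotinylated probe, detected via Europium anti-His and XL665 streptavidin, probe displacement lowers TR-FRET signal, IC50 from four-parameter nonlinear fit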
TEAD3 = TEAD3 (Homo sapiens (Human), UniProt Q99594); test: TR-FRET lipid pocket probe competition assay (Lipid HTRF), TEAD3; assay type: binding; conditions: 4 hours pre-incubation; read-out: Lipid HTRF TEAD3 IC50
TEAD4 = TEAD4 (Homo sapiens (Human), UniProt Q15561); test: TR-FRET lipid pocket probe competition assay (Lipid HTRF), TEAD4; assay type: binding; conditions: 4 hours pre-incubation; read-out: Lipid HTRF TEAD4 IC50;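 note: His-tagged TEAD4 with biotinylated lipid-pocket probe, read by Europium anti-His and XL665 streptavidin, where probe displacement lowers the TR-FRET signal, IC50 from a four-parameter fit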
Experimental: His-tagged TEAD proteins are pre-incubated with TEAD project compounds for 30 minutes or 4 hours at room temperature. Biotinylated lipid pocket probes are then added to the TEAD/Compound mixture and incubated for 60 minutes at room temperature. The lipid pocket probe competes with the test compound for the TEAD lipid pocket until equilibrium is reached. After 60 minutes, Europium labelled anti-His (Perkin Elmer #AD0110) and XL665 labelled streptavidin (CIS Bio 610SAXAC) are added to the TEAD/test compound/lipid pocket mixture and incubated for 30 minutes or 4 hours. […] If a TEAD lipid pocket binder such as binds and displaces the lipid pocket probe, the disruption of the TEAD:probe interaction results in a decrease in TR-FRET signal. The potency of compounds as TEAD lipid pocket binders is determined by IC50 value generated using a non-linear 4 parameter curve fit.

TEAD2 = TEAD2 (Homo sapiens (Human), UniProt Q15562);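 note: TR-FRET competition assay with His-tagged TEAD protein and a biotinylated lipid pocket probe, compound pre-incubated 30 min or 4 h at room temperature, displacement lowers signal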
Chain of TEAD2 (Q15562 whole entry, species assumed): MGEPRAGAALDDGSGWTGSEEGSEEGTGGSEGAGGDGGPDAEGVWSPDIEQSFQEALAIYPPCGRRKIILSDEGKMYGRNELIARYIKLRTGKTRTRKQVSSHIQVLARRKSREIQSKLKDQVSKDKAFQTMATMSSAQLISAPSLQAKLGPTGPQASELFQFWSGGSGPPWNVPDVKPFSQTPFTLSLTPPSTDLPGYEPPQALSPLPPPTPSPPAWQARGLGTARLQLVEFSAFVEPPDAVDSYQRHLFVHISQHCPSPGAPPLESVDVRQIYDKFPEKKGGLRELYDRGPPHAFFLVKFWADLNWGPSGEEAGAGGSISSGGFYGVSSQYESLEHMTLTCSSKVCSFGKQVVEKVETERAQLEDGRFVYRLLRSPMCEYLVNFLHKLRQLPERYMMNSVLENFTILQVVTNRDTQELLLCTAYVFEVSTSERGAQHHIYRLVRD
Experimental: His-tagged TEAD proteins are pre-incubated with TEAD project compounds for 30 minutes or 4 hours at room temperature. Biotinylated lipid pocket probes are then added to the TEAD/Compound mixture and incubated for 60 minutes at room temperature. The lipid pocket probe competes with the test compound for the TEAD lipid pocket until equilibrium is reached. After 60 minutes, Europium labelled anti-His (Perkin Elmer #AD0110) and XL665 labelled streptavidin (CIS Bio 610SAXAC) are added to the TEAD/test compound/lipid pocket mixture and incubated for 30 minutes or 4 hours. TR-FRET values are then measured using an EnVision multi-label plate reader (Perkin Elmer Cat #2104-0010A.) If the lipid pocket probe binds to TEAD as expected, a TR-FRET signal results from the proximity of anti-His Eu and XL665. If a TEAD lipid pocket binder such as binds and displaces the lipid pocket probe, the disruption of the TEAD:probe interaction results in a decrease in TR-FRET signal. The potency of compounds as TEAD lipid pocket binders is determined by IC50 value generated using a non-linear 4 parameter curve fit.

Chain of TEAD4 (Q15561 whole entry, species assumed): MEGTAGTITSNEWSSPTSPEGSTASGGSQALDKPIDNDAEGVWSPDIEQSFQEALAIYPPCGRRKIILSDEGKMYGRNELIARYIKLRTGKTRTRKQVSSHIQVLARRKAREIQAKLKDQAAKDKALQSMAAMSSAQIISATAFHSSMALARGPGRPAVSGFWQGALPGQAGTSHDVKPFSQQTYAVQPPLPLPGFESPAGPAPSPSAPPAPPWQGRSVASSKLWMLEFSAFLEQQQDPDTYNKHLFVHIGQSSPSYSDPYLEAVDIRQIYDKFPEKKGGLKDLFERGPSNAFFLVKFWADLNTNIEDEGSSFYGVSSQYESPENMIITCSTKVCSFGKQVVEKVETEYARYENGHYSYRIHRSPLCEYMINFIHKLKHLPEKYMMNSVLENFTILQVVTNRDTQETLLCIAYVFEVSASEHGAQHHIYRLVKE
Chain of TEAD1 (P28347 whole entry, species assumed): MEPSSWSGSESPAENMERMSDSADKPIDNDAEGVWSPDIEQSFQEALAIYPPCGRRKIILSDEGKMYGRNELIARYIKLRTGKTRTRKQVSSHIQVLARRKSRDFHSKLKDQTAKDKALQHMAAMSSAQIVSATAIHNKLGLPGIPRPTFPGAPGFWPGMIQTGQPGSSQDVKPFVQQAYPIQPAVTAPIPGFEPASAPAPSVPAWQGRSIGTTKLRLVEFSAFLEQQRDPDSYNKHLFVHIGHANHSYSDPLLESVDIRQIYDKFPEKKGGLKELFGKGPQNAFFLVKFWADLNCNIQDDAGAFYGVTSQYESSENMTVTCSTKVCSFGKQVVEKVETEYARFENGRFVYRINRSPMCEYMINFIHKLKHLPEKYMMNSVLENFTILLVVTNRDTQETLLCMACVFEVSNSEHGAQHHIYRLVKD
Chain of TEAD3 (Q99594 whole entry, species assumed): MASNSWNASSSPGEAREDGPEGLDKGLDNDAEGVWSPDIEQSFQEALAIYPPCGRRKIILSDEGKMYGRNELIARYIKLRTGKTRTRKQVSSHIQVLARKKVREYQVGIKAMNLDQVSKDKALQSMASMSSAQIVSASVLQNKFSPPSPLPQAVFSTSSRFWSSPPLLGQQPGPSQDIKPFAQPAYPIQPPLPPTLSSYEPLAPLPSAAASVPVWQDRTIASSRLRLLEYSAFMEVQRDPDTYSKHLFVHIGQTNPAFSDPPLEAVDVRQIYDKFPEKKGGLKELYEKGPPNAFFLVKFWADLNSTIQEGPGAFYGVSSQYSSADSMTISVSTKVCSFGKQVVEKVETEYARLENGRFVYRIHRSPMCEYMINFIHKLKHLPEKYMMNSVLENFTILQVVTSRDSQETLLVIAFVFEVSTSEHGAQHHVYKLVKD

Row | SMILES | IC50 (TEAD1) | IC50 (TEAD3) | IC50 (TEAD4) | IC50 (TEAD2)
1 | C=CC(=O)N1CC(c2nn(-c3ccc(OC(F)(F)F)cc3)c3nccc([C@@H](O)CO)c23)C1 [Compound 114, (R)-1-(3-(4-(1,2-Dihydroxyethyl)-1-(4-(trifluoromethoxy)phenyl)-1H-pyrazolo[3,4-b]pyridin-3-yl)azetidin-1-yl)prop-2-en-1-one] | 14 nM | 16 nM | 2.9 nM | 4.6 nM
2 | C=CC(=O)NCc1nn(-c2ccc(OC(F)(F)F)cc2)c2nccc(N3CC(NC(C)=O)C3)c12 [Compound 116, N-((4-(3-acetamidoazetidin-1-yl)-1-(4-(trifluoromethoxy)phenyl)-1H-pyrazolo[3,4-b]pyridin-3-yl)methyl)acrylamide] | 27 nM | 14000 nM | 11 nM | 75 nM
3 | C=CC(=O)NCc1nn(-c2ccc(OC(F)(F)F)cc2)c2nccc(N3CC(OC)C3)c12 [Compound 118, N-((4-(3-methoxyazetidin-1-yl)-1-(4-(trifluoromethoxy)phenyl)-1H-pyrazolo[3,4-b]pyridin-3-yl)methyl)acrylamide] | 16 nM | 50000 nM | 4.3 nM | 97 nM
4 | C=CC(=O)NCc1nn(-c2ccc(OC(F)(F)F)cc2)c2nccc(N3CC(NC)C3)c12 [Compound 122, N-((4-(3-(methylamino)azetidin-1-yl)-1-(4-(trifluoromethoxy)phenyl)-1H-pyrazolo[3,4-b]pyridin-3-yl)methyl)acrylamide] | 190 nM | 21000 nM | 39 nM | 2000 nM
5 | C=CC(=O)NCc1nn(-c2ccc(OC(F)(F)F)cc2)c2nccc(OCCO)c12 [Compound 126, N-((4-(2-Hydroxyethoxy)-1-(4-(trifluoromethoxy)phenyl)-1H-pyrazolo[3,4-b]pyridin-3-yl)methyl)acrylamide] | 22 nM | 50000 nM | 4.4 nM | 120 nM
6 | C=CC(=O)NCc1nn(-c2ccc(OC(F)(F)F)cc2)c2nccc(-c3cn[nH]c3)c12 [Compound 134, N-((4-(1H-Pyrazol-4-yl)-1-(4-(trifluoromethoxy)phenyl)-1H-pyrazolo[3,4-b]pyridin-3-yl)methyl)acrylamide] | 14 nM | 360 nM | 22 nM | 43 nM
7 | O=C(/C=C/CF)N1CC(c2nn(-c3ccc(OC(F)(F)F)cc3)c3ccnc(N4CC(O)C4)c23)C1 [Compound 137, (E)-4-fluoro-1-(3-(4-(3-hydroxyazetidin-1-yl)-1-(4-(trifluoromethoxy)phenyl)-1H-pyrazolo[4,3-c]pyridin-3-yl)azetidin-1-yl)but-2-en-1-one] | 72 nM | 5200 nM | 26 nM | 360 nM
8 | C=CC(=O)N(C)Cc1nn(-c2ccc(OC(F)(F)F)cc2)c2nccc([C@H](O)CO)c12 [Compound 139, (S)-N-((4-(1,2-Dihydroxyethyl)-1-(4-(trifluoromethoxy)phenyl)-1H-pyrazolo[3,4-b]pyridin-3-yl)methyl)-N-methylacrylamide] | 31 nM | 600 nM | 12 nM | 26 nM
9 | C=CC(=O)NCc1nn(-c2ccc(OC(F)F)cc2)c2nccc(CO)c12 [Compound 140, N-((1-(4-(difluoromethoxy)phenyl)-4-(hydroxymethyl)-1H-pyrazolo[3,4-b]pyridin-3-yl)methyl)acrylamide] | 230 nM | 4400 nM | 440 nM | 720 nM
10 | C=C(F)C(=O)N1CC(c2nn(-c3ccc(OC(F)(F)F)cc3)c3nccc(N4CC([C@H](O)CO)C4)c23)C1 [Compound 141, (S)-1-(3-(4-(3-(1,2-dihydroxyethyl)azetidin-1-yl)-1-(4-(trifluoromethoxy)phenyl)-1H-pyrazolo[3,4-b]pyridin-3-yl)azetidin-1-yl)-2-fluoroprop-2-en-1-one] | 27 nM | 2000 nM | 6.9 nM | 54 nM
11 | C=CC(=O)NCc1nn(-c2ccc(OC(F)(F)F)cc2)c2nccc(N[C@H]3C[C@@H](O)C3)c12 [Compound 143, N-((4-((3-hydroxycyclobutyl)amino)-1-(4-(trifluoromethoxy)phenyl)-1H-pyrazolo[3,4-b]pyridin-3-yl)methyl)acrylamide] | 16 nM | 50000 nM | 65 nM | 65 nM
12 | C=CC(=O)NCc1nn(-c2ccc(OC(F)(F)F)cc2)c2nccc([C@H]3COC(=O)O3)c12 [Compound 144, (S)-N-((4-(2-Oxo-1,3-dioxolan-4-yl)-1-(4-(trifluoromethoxy)phenyl)-1H-pyrazolo[3,4-b]pyridin-3-yl)methyl)acrylamide] | 560 nM | 50000 nM | 55 nM | 150 nM
13 | O=C(C1=CCCC1)N1CC(c2nn(-c3ccc(OC(F)(F)F)cc3)c3nccc(CO)c23)C1 [Compound 150, Cyclopent-1-en-1-yl(3-(4-(hydroxymethyl)-1-(4-(trifluoromethoxy)phenyl)-1H-pyrazolo[3,4-b]pyridin-3-yl)azetidin-1-yl)methanone] | 560 nM | 50000 nM | 460 nM | 1200 nM

More lines, in order of falling IC50 (TEAD1), values ahead:

Row | IC50 (TEAD1) | IC50 (TEAD3) | IC50 (TEAD4) | IC50 (TEAD2) | SMILES
14 | 800 nM | 1700 nM | 44 nM | 870 nM | C=C(F)C(=O)N1CC(c2nn(-c3ccc(OC(F)(F)F)cc3)c3nccc(N4CC[C@@H](O)C4=O)c23)C1 [Compound 125, (R)-1-(3-(1-(2-fluoroacryloyl)azetidin-3-yl)-1-(4-(trifluoromethoxy)phenyl)-1H-pyrazolo[3,4-b]pyridin-4-yl)-3-hydroxypyrrolidin-2-one]
15 | 680 nM | 50000 nM | 570 nM | 630 nM | C/C=C(\C)C(=O)N1CC(c2nn(-c3ccc(OC(F)(F)F)cc3)c3nccc(CO)c23)C1 [Compound 151, (E)-1-(3-(4-(Hydroxymethyl)-1-(4-(trifluoromethoxy)phenyl)-1H-pyrazolo[3,4-b]pyridin-3-yl)azetidin-1-yl)-2-methylbut-2-en-1-one]
16 | 390 nM | 34000 nM | 99 nM | 68 nM | C=CC(=O)NCc1nn(-c2ccc(OC(F)(F)F)cc2)c2nccc(C(C)(C)O)c12 [Compound 135, N-((4-(2-Hydroxypropan-2-yl)-1-(4-(trifluoromethoxy)phenyl)-1H-pyrazolo[3,4-b]pyridin-3-yl)methyl)acrylamide]
17 | 380 nM | 5400 nM | 540 nM | 1000 nM | C=C(F)C(=O)N1CC(c2nn(-c3ccc(OC(F)(F)F)cc3)c3nccc(-c4c[nH]cn4)c23)C1 [Compound 130, 1-(3-(4-(1H-Imidazol-4-yl)-1-(4-(trifluoromethoxy)phenyl)-1H-pyrazolo[3,4-b]pyridin-3-yl)azetidin-1-yl)-2-fluoroprop-2-en-1-one]
18 | 160 nM | 550 nM | 110 nM | 250 nM | C=CC(=O)NCc1nn(-c2ccc(OC(F)(F)F)cc2)c2nccc(-c3c[nH]cn3)c12 [Compound 119, N-((4-(1H-Imidazol-4-yl)-1-(4-(trifluoromethoxy)phenyl)-1H-pyrazolo[3,4-b]pyridin-3-yl)methyl)acrylamide]
19 | 150 nM | 50000 nM | 9 nM | 330 nM | C=C(F)C(=O)N1CC(c2nn(-c3ccc(OC(F)(F)F)cc3)c3nccc(N4CC(CO)(CO)C4)c23)C1 [Compound 142, 1-(3-(4-(3,3-Bis(hydroxymethyl)azetidin-1-yl)-1-(4-(trifluoromethoxy)phenyl)-1H-pyrazolo[3,4-b]pyridin-3-yl)azetidin-1-yl)-2-fluoroprop-2-en-1-one]
20 | 110 nM | 200 nM | 43 nM | 20 nM | CC#CC(=O)N1CC(c2nn(-c3ccc(OC(F)(F)F)cc3)c3nccc([C@H](O)CO)c23)C1 [Compound 129, (S)-1-(3-(4-(1,2-Dihydroxyethyl)-1-(4-(trifluoromethoxy)phenyl)-1H-pyrazolo[3,4-b]pyridin-3-yl)azetidin-1-yl)but-2-yn-1-one]
21 | 41 nM | 930 nM | 9.9 nM | 200 nM | C=CC(=O)NCc1nn(-c2ccc(OC(F)(F)F)cc2)c2nccc(N3CC(O)(CO)C3)c12 [Compound 124, N-((4-(3-hydroxy-3-(hydroxymethyl)azetidin-1-yl)-1-(4-(trifluoromethoxy)phenyl)-1H-pyrazolo[3,4-b]pyridin-3-yl)methyl)acrylamide]
22 | 27 nM | 270 nM | 55 nM | 160 nM | C/C=C/C(=O)N1CC(c2nn(-c3ccc(OC(F)(F)F)cc3)c3nccc(CO)c23)C1 [Compound 120, (E)-1-(3-(4-(Hydroxymethyl)-1-(4-(trifluoromethoxy)phenyl)-1H-pyrazolo[3,4-b]pyridin-3-yl)azetidin-1-yl)but-2-en-1-one]
23 | 17 nM | 280 nM | 14 nM | 90 nM | O=C(NCc1nn(-c2ccc(OC(F)(F)F)cc2)c2nccc(CO)c12)C1=CCC1 [Compound 148, N-((4-(Hydroxymethyl)-1-(4-(trifluoromethoxy)phenyl)-1H-pyrazolo[3,4-b]pyridin-3-yl)methyl)cyclobut-1-enecarboxamide]
24 | 7.9 nM | 13 nM | 3.3 nM | 17 nM | O=C(/C=C/CO)N1CC(c2nn(-c3ccc(OC(F)(F)F)cc3)c3nccc(Cl)c23)C1 [Compound 127, (E)-1-(3-(4-Chloro-1-(4-(trifluoromethoxy)phenyl)-1H-pyrazolo[3,4-b]pyridin-3-yl)azetidin-1-yl)-4-hydroxybut-2-en-1-one]
25 | 6.5 nM | 72 nM | 3.6 nM | 12 nM | O=C(C#CCO)NCc1nn(-c2ccc(OC(F)(F)F)cc2)c2nccc(CO)c12 [Compound 128, 4-Hydroxy-N-((4-(hydroxymethyl)-1-(4-(trifluoromethoxy)phenyl)-1H-pyrazolo[3,4-b]pyridin-3-yl)methyl)but-2-ynamide]
